Experimental data: the NIST ThermoML archive (doi:10.1016/j.fluid.2010.10.028)

Assay: xn = mol fraction of the nth substance listed
Conditions: Liquid, Vibrating tube method

CC(C)=O [acetone] + CCCCCCC
Conditions | mass density [kg/m3]
377.4 K, 104790 kPa, x1 = 0.492 | 730.51
377.4 K, 104810 kPa, x1 = 0.801 | 762.89
377.4 K, 109780 kPa, x1 = 0.492 | 733.39
377.4 K, 109790 kPa, x1 = 0.801 | 765.94
377.4 K, 109820 kPa, x1 = 0.7024 | 753.96
377.4 K, 109850 kPa, x1 = 0.611 | 743.53
377.4 K, 114760 kPa, x1 = 0.801 | 768.91
377.4 K, 114820 kPa, x1 = 0.7024 | 756.89
377.4 K, 114850 kPa, x1 = 0.611 | 746.4
377.4 K, 119800 kPa, x1 = 0.7024 | 759.71
377.4 K, 119830 kPa, x1 = 0.492 | 738.96
377.4 K, 119830 kPa, x1 = 0.801 | 771.84
377.4 K, 124810 kPa, x1 = 0.7024 | 762.48
377.4 K, 124850 kPa, x1 = 0.492 | 741.61
377.4 K, 124850 kPa, x1 = 0.801 | 774.66
377.4 K, 129810 kPa, x1 = 0.7024 | 765.17
377.4 K, 129840 kPa, x1 = 0.611 | 754.52
377.4 K, 129840 kPa, x1 = 0.801 | 777.42
377.4 K, 129850 kPa, x1 = 0.492 | 744.18
377.41 K, 1430 kPa, x1 = 0.4 | 667.78
377.41 K, 1430 kPa, x1 = 0.8992 | 667.78
377.41 K, 5010 kPa, x1 = 0.4 | 675.34
377.41 K, 5010 kPa, x1 = 0.8992 | 675.34
377.41 K, 10000 kPa, x1 = 0.4 | 684.66
377.41 K, 10000 kPa, x1 = 0.8992 | 684.66
377.41 K, 14980 kPa, x1 = 0.4 | 692.99
377.41 K, 14980 kPa, x1 = 0.8992 | 692.99
377.41 K, 19960 kPa, x1 = 0.4 | 700.52
377.41 K, 19960 kPa, x1 = 0.8992 | 700.52
377.41 K, 24950 kPa, x1 = 0.4 | 707.43
377.41 K, 24950 kPa, x1 = 0.8992 | 707.43
377.41 K, 29840 kPa, x1 = 0.801 | 699.24
377.41 K, 29860 kPa, x1 = 0.492 | 670
377.41 K, 29930 kPa, x1 = 0.4 | 713.82
377.41 K, 29930 kPa, x1 = 0.8992 | 713.82
377.41 K, 34850 kPa, x1 = 0.801 | 705.2
377.41 K, 34930 kPa, x1 = 0.4 | 719.78
377.41 K, 34930 kPa, x1 = 0.8992 | 719.78
377.41 K, 39850 kPa, x1 = 0.801 | 710.77
377.41 K, 39910 kPa, x1 = 0.4 | 725.35
377.41 K, 39910 kPa, x1 = 0.8992 | 725.35
377.41 K, 44860 kPa, x1 = 0.801 | 716
377.41 K, 44890 kPa, x1 = 0.4 | 730.6
377.41 K, 44890 kPa, x1 = 0.8992 | 730.6
377.41 K, 49850 kPa, x1 = 0.801 | 720.93
377.41 K, 49880 kPa, x1 = 0.4 | 735.58
377.41 K, 49880 kPa, x1 = 0.8992 | 735.58
377.41 K, 54850 kPa, x1 = 0.492 | 695.17
377.41 K, 54860 kPa, x1 = 0.4 | 740.29
377.41 K, 54860 kPa, x1 = 0.8992 | 740.29
377.41 K, 59860 kPa, x1 = 0.4 | 744.79
377.41 K, 59860 kPa, x1 = 0.8992 | 744.79
377.41 K, 64820 kPa, x1 = 0.492 | 703.44
377.41 K, 64830 kPa, x1 = 0.4 | 749.06
377.41 K, 64830 kPa, x1 = 0.8992 | 749.06
377.41 K, 69810 kPa, x1 = 0.4 | 753.19
377.41 K, 69810 kPa, x1 = 0.8992 | 753.19
377.41 K, 74900 kPa, x1 = 0.492 | 711.06
377.41 K, 79760 kPa, x1 = 0.4 | 760.91
377.41 K, 79760 kPa, x1 = 0.8992 | 760.91
377.41 K, 84740 kPa, x1 = 0.4 | 764.58
377.41 K, 84740 kPa, x1 = 0.8992 | 764.58
377.41 K, 89720 kPa, x1 = 0.4 | 768.12
377.41 K, 89720 kPa, x1 = 0.8992 | 768.12
377.41 K, 94700 kPa, x1 = 0.4 | 771.53
377.41 K, 94700 kPa, x1 = 0.8992 | 771.53
377.41 K, 99670 kPa, x1 = 0.4 | 774.85
377.41 K, 99670 kPa, x1 = 0.8992 | 774.85
377.41 K, 104650 kPa, x1 = 0.4 | 778.05
377.41 K, 104650 kPa, x1 = 0.8992 | 778.05
377.41 K, 109630 kPa, x1 = 0.4 | 781.18
377.41 K, 109630 kPa, x1 = 0.8992 | 781.18
377.41 K, 114600 kPa, x1 = 0.4 | 784.19
377.41 K, 114600 kPa, x1 = 0.8992 | 784.19
377.41 K, 114850 kPa, x1 = 0.492 | 736.23
377.41 K, 119570 kPa, x1 = 0.4 | 787.15
377.41 K, 119570 kPa, x1 = 0.8992 | 787.15
377.41 K, 124540 kPa, x1 = 0.4 | 790.02
377.41 K, 124540 kPa, x1 = 0.8992 | 790.02
377.41 K, 129820 kPa, x1 = 0.4 | 793
377.41 K, 129820 kPa, x1 = 0.8992 | 793
387.3 K, 19850 kPa, x1 = 0.611 | 656.37
387.31 K, 1350 kPa, x1 = 0.611 | 620.65
387.31 K, 4850 kPa, x1 = 0.611 | 628.99
387.31 K, 9850 kPa, x1 = 0.611 | 639.33
387.31 K, 14880 kPa, x1 = 0.611 | 648.36
387.31 K, 39860 kPa, x1 = 0.611 | 682.12
387.31 K, 49860 kPa, x1 = 0.611 | 692.49
387.31 K, 54850 kPa, x1 = 0.611 | 697.23
387.31 K, 64910 kPa, x1 = 0.611 | 706.07
387.31 K, 84880 kPa, x1 = 0.611 | 721.4
